Laboratory results as given in patent EP3889262A1, “INHIBITION OF CASPASE-3 BY THE MICRORNA 126-5P” (Ludwig-Maximilians-Universität München, priority 2020, dated 2021).
Peptide text beside a SMILES is read from it. * marks the point of attachment. Cbz = O=C(OCc1ccccc1)*; CH2F = FC*

Tests used:
HUVECs = test: qPCR of miR-126 strand amounts and nucleo-cytoplasmic distribution in HUVECs; format: cell-based, human; details: for nuclear miR-126-5p: fractional qPCR, ivermectin with rapamycin, 3-methyladenine with KLF2 overexpression
Protocol: HUVECs were treated with rapamycin (Santa Cruz Biotechnology) at 5 µM, ivermectin (Santa Cruz Biotechnology) at […], 3-methyladenine (Sigma Aldrich) at 5 mM, and/or camptothecin (Abcam) at 500 nM. Unless stated otherwise, treatment was applied for 3 h to analyze early processes and to avoid activation of concomitant or compensatory mechanisms. RNA interference technology was applied to generate specific knockdowns with siRNA against ATG5, ATG7, Mex3a (Qiagen). Functional studies on miRNA function were carried with miScript miRNA mimics and inhibitors of miR-126-5p (Qiagen). Overexpression of KLF2 and Mex3a were obtained by pCMV-hKLF2 and pCMV-hMex3a plasmids. Transfections were performed by electroporation using Amaxa Nucleofector technology (Lonza) or Lipofectamine™ 2000 (ThermoFisher Scientific) according to the manufacturer's protocols.

recombinant caspase-3 = biological target: T1, recombinant caspase-3 (Homo sapiens, UniProt P42574); test: Cell-free analysis of caspase-3 activity (substrate cleavage); format: biochemical; details: substrate cleavage by recombinant caspase-3, cell-free
T1 sequence (P42574 29-175 limits assumed): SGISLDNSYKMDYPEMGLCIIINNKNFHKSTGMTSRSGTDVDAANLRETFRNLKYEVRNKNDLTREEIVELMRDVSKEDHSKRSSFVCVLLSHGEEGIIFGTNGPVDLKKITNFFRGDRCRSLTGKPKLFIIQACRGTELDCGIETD
T1 sequence (P42574 176-277 limits assumed): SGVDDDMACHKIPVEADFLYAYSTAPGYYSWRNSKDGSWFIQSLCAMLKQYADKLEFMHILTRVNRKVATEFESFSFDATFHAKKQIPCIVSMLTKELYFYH

Compound	nuclear miR-126-5p (HUVECs)	further results
Cn1cnc(N)c2ncnc1-2 [3-methyladenine]	blunted	
CO/C1=C\C(C)=C\[C@@H](C)[C@@H](O)[C@@H](C)C/C(C)=C/C=C/[C@H](OC)[C@@H]([C@@H](C)[C@@H](O)[C@H](C)[C@@]2(O)C[C@@H](O)[C@H](C)[C@@H](C(C)C)O2)OC1=O [bafilomycin]		amount of miR-126-3p (HUVECs; ECs): restored
ivermectin	prevented	
COC(=O)C[C@H](NC(=O)[C@H](C)NC(=O)[C@@H](NC(=O)OCc1ccccc1)C(C)C)C(=O)CF [Z-VAD-FMK] (Cbz-Val-Ala-Asp(OMe)-CH2F)		IC50 (recombinant caspase-3): 75.9 µM
